Active and inactive are the calls of the source.
How the values were obtained:
[1] = target: T1, Sentrin-specific protease 8 (Homo sapiens, UniProt Q96LD8); assay type: functional
T1 sequence (Q96LD8 whole entry): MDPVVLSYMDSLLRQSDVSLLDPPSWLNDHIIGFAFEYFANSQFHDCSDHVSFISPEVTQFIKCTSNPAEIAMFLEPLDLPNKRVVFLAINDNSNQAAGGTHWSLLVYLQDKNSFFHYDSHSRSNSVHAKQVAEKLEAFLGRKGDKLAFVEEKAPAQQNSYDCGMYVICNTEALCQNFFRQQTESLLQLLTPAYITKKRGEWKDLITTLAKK

[2] = target: T1, Sentrin-specific protease 8; assay type: functional; remark: listed apart in the source
[3] = activation of miR-122 Renilla sensor silencing – cell-based, Huh7 psiCHECK-miR122, Renilla luciferase, cherry-picked, dose response (AID 651956); assay type: functional;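 further: huh7 hepatoma cells stably carrying a psiCHECK-2 miR-122 sensor plasmid; renilla luciferase signal reporting endogenous miR-122 activity after 48 h compound exposure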
[4] = THP-1 cell cytotoxicity, dose response, cytotoxicity control for non-replicating M. tuberculosis project (AID 489025); assay type: functional
[5] = cytotoxicity toward MDA-MB-231 breast cancer cells – cell-based, CellTiter-Glo luminescence, cherry-pick, cytotoxicity control for RAD54 inhibitor project, dose response (AID 651692); assay type: functional
[6] = target: T2, DNA repair protein RAD52 homolog (Homo sapiens, UniProt P43351); assay type: functional, biochemical
T2 sequence (P43351 whole entry): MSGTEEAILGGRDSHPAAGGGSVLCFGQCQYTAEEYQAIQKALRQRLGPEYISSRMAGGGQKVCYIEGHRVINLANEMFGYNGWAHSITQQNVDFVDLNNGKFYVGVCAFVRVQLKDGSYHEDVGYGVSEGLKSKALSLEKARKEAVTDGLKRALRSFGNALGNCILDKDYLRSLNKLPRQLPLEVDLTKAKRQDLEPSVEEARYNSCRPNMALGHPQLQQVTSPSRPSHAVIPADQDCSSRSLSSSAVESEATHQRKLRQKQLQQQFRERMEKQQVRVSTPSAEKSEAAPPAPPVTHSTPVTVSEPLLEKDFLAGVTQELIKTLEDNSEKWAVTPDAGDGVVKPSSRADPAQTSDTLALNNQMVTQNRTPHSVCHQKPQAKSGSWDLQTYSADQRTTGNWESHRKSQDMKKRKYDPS

[7] = NIH3T3 cell viability loss – ATP luminescence, mouse fibroblasts, counter-screen, dose response (AID 2010); assay type: functional, cell-based;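 further: cells exposed to compound for about 90 hours before reading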
[8] = HepG2 cell cytotoxicity, dose response, cytotoxicity control for non-replicating M. tuberculosis project (AID 489018); assay type: functional; settings: Mycobacterium tuberculosis
cells = assay type: functional
[9] = target: T3, Short transient receptor potential channel 4 (Mus musculus, UniProt Q9QUQ5); test: calcium entry via TRPC4 opening agents – cell-based, HEK293 TRPC4/mu-opioid, Fluo-4 calcium, dose response (AID 434937); assay type: functional
T3 sequence (Q9QUQ5 whole entry): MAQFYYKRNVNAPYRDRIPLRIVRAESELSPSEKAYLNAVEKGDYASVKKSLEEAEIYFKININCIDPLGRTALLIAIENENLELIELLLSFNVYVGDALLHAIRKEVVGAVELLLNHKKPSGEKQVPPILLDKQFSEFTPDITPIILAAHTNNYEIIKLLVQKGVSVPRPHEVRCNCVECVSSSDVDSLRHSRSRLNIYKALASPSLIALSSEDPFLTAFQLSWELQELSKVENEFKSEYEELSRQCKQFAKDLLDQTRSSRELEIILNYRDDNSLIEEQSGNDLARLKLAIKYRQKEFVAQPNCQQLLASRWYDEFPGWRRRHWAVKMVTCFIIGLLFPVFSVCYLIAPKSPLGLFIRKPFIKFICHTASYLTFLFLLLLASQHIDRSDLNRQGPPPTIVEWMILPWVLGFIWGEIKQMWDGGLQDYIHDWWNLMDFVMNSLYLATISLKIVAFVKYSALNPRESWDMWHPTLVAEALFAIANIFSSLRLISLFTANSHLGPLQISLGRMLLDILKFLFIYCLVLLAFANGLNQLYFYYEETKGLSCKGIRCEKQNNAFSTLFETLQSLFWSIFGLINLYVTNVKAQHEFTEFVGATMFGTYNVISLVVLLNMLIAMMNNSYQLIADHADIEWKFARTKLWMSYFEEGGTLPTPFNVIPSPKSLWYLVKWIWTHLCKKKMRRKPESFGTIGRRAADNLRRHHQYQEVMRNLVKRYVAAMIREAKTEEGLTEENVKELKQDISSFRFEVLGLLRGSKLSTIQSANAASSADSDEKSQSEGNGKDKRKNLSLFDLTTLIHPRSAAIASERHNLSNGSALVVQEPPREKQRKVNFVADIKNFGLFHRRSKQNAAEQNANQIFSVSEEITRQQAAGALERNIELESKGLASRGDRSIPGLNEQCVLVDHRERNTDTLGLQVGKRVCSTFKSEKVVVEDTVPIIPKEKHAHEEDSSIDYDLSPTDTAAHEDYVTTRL

[10] = target: T4, Rac GTPase-activating protein 1 (Homo sapiens, UniProt Q9H0H5); test: blockers of MgcRacGAP-driven Rac1 GTP hydrolysis – biochemical, ADP Hunter fluorescence, primary and confirmatory, confirmation (AID 624330); assay type: functional
T4 sequence (Q9H0H5 whole entry): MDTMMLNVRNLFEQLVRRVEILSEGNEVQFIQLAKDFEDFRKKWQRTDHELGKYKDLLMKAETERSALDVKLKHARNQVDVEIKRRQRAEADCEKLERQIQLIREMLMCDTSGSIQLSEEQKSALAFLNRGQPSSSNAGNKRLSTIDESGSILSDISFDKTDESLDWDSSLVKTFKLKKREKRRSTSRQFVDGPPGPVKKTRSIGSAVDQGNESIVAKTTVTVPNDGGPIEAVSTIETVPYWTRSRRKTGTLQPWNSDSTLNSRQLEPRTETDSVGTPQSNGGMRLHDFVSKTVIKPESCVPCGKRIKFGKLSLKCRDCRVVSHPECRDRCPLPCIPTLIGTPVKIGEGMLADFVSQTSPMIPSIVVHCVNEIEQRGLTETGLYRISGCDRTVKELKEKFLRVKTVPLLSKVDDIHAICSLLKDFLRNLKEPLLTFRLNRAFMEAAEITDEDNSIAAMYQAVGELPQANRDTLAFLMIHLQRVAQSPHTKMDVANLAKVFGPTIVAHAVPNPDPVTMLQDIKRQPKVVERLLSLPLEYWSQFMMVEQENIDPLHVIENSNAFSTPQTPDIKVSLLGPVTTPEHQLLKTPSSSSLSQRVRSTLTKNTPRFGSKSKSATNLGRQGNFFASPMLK

[11] = viability loss in HeLa cells – cytotoxicity control for MgcRacGAP inhibitor project, dose response (AID 624300); assay type: functional
[12] = target: T5, DNA repair and recombination protein RAD54-like (Homo sapiens, UniProt Q92698); test: RAD54 Holliday junction migration blockers – biochemical, fluorescence, cherry-picked samples, dose series, confirmation (AID 651657); assay type: functional
T5 sequence (Q92698 whole entry): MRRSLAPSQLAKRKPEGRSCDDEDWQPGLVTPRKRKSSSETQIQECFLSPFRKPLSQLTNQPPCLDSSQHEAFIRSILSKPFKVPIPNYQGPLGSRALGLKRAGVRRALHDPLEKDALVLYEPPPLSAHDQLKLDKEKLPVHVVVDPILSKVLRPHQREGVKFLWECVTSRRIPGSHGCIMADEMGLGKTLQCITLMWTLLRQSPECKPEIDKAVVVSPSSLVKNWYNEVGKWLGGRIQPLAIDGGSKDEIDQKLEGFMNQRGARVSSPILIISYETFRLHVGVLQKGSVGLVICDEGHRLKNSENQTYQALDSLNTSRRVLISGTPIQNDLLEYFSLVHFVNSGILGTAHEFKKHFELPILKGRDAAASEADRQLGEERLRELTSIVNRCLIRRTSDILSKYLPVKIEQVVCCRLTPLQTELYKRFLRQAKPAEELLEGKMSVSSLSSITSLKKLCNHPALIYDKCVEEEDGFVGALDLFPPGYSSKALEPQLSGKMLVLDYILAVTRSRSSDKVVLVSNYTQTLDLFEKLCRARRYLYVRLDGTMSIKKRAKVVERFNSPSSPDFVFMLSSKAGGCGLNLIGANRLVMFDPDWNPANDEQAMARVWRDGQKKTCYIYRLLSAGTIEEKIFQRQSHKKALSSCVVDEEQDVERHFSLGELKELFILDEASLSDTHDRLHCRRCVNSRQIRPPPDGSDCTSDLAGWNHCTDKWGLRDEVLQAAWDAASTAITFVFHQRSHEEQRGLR

[13] = Vero E6 cell cytotoxicity, dose response, cytotoxicity control for non-replicating M. tuberculosis project, secondary assay (AID 492998); assay type: functional, VeroE6; settings: Vero C1008
[14] = Trypanosoma cruzi growth suppression in host cells – NIH3T3 host cells, beta-gal luminescence, confirmation (AID 2044); assay type: functional, cell-based;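 further: intracellular parasites grown in NIH/3T3 mouse fibroblasts as host cells; luminescent beta-galactosidase reporter signal from transgenic T. cruzi replicating inside host cells; inhibitors lower the luminescence signal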

COC(=O)CCCC1=CC2=CC(=O)C(C)(OC(=O)c3cccs3)C(=O)C2=CN1C1CC1 (stereo unspecified)
active: IC50 [1] 7.17 µM | IC50 [2] 17.3 µM

COC(=O)C[C@H]1CC[C@H]2[C@@H](COc3ccc(NC(=O)Nc4c(C)noc4C)cc3C(=O)N2C)O1
active: AC50 [3] 40.4 µM

C[C@H](CO)N1C[C@H](C)[C@@H](CN(C)Cc2ccc(-c3ccccc3)cc2)Oc2ncc(C#CCN(C)C)cc2C1=O
active: AC50 [3] 20.3 µM

CCCCN(CC)CCNC(=O)c1cc2c(-c3ccc(Cl)cc3)nn(C)c2s1
active: CC50 [4] 13.7 µM | AC50 [5] 23.7 µM | AC50 [6] 6.76 µM | EC50 [7] 8.44 µM | CC50 [8] 5.62 µM | IC50 (cells) 9.15 µM | EC50 [9] 0.211 µM | IC50 [10] 229 µM | CC50 [11] 55.5 µM | AC50 [12] 21.7 µM | CC50 [13] 12.9 µM | EC50 [14] 0.809 µM

— ChEMBL document CHEMBL1201862, “PubChem BioAssay data set” (2004)
